This is an account of results in ChEMBL document CHEMBL1138109, “Semicarbazone-based inhibitors of cathepsin K, are they prodrugs for aldehyde inhibitors?” (Bioorg Med Chem Lett, 2006).

Data set [1] has as its target T1, Cathepsin K (Homo sapiens, UniProt P43235).
T1 sequence (P43235 whole entry): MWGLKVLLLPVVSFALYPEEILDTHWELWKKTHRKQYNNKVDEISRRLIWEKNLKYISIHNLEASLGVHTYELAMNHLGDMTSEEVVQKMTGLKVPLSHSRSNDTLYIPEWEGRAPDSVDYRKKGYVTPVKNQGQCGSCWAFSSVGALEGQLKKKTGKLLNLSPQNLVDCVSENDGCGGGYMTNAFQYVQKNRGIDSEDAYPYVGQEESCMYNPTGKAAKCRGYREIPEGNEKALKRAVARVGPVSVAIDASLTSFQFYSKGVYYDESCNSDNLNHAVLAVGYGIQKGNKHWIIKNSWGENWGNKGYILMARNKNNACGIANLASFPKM
Put plainly: Inhibition of recombinant human cathepsin K in a fluorescence assay.

For a further data set, the target named is T2, Pro-cathepsin H (Homo sapiens, UniProt P09668).
T2 sequence (P09668 whole entry): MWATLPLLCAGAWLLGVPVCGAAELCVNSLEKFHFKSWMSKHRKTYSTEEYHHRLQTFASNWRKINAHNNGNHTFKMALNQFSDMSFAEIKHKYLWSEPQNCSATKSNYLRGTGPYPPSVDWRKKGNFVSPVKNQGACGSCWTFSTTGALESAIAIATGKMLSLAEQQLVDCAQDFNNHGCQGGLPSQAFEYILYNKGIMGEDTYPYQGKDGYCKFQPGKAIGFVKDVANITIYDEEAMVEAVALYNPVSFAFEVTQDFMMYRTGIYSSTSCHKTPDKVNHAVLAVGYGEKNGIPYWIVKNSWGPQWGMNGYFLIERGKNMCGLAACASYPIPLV
Put plainly: Inhibition of recombinant human cathepsin H in a fluorescence assay.

A further data set deals with Cathepsin B (Homo sapiens, UniProt P07858). Put plainly: Inhibition of recombinant human cathepsin B in a fluorescence assay.
A further data set deals with Procathepsin L (Homo sapiens, UniProt P07711). Put plainly: Inhibition of recombinant human cathepsin L in a fluorescence assay.
Chain of Procathepsin L (P07711 whole entry): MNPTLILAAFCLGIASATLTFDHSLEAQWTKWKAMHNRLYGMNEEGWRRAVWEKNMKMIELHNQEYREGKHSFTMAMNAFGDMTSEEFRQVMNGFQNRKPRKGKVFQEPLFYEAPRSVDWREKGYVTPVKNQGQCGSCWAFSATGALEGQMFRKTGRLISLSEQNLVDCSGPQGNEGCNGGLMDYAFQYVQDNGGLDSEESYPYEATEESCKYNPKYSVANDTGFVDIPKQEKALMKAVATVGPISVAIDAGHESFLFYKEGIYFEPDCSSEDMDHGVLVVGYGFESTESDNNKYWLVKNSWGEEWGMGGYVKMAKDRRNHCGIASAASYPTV
Data set [2] can be described thus: Permeability across MDCK cells. The class given is ADME, cell-based, Canis lupus familiaris. The following applies: dog.
The nature of data set [3]: (§1) Volume of distribution in Han Wistar rat. The class given is ADME, organism-based. To be noted: Han Wistar, in vivo.
Data set [4] can be described thus: (§2) Terminal half life in iv dosed Han Wistar rat. Type of data set: ADME, organism-based. To be noted: Han Wistar, in vivo, read-out: beta t1/2.
A short description of data set [5]: Clearance in Han Wistar rat. To be noted: in vivo. Type of data set: ADME, organism-based.
A short description of data set [6]: Oral bioavailability in male Han Wistar rat. The following applies: in vivo. The class given is ADME, organism-based.
Data set [7] is described as follows: Solubility in fasted state-simulated intestinal fluid at pH 6.8. Type of data set: physicochemical.
The species named for data set [8] is Rattus norvegicus. Described as §1. Type of data set: ADME, organism-based. The following applies: in vivo.
The subject of data set [9] is Rattus norvegicus. Described as §2. The class given is ADME, organism-based. The following applies: in vivo.
For data set [10], the target named is T3, Cathepsin K (Rattus norvegicus, UniProt O35186).
T3 sequence (O35186 whole entry): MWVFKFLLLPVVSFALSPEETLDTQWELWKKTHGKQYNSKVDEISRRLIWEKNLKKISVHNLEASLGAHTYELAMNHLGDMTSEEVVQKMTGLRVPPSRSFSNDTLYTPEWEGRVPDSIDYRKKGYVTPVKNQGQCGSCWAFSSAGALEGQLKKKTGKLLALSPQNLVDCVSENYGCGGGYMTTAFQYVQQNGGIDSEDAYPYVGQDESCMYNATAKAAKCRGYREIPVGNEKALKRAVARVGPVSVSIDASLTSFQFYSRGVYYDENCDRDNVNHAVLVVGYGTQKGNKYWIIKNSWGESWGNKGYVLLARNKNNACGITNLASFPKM
Put plainly: Inhibition of rat cathepsin K.

Values after ≈ are worked out from the molar mass of the structure shown.

Consider `CCCC[C@@H](/C=N/NC(=O)NC(C)C)NC(=O)OC(C)(C)C`, for which the IC50 on Cathepsin K [1] amounted to 170 nM.

Take `CCCC[C@@H](/C=N/NC(=O)N1CCOCC1)NC(=O)O[C@H](Cc1ccccc1)C(C)C`: the IC50 on Pro-cathepsin H is 190 nM; at Cathepsin B, 18 nM; on Procathepsin L it was 0.012 µM; on Cathepsin K [1], 0.33 nM.

Regarding `CCCC[C@@H](/C=N/NC(=O)NC)NC(=O)OC(C)(C)C`, the IC50 on Cathepsin K [1] stood at 280 nM.

As for `CCCC[C@@H](/C=N/NC(=O)N(C)C)NC(=O)OC(C)(C)C`, the IC50 at Cathepsin K [1] came to 72 nM.

Consider `CCCC[C@@H](C=O)NC(=O)O[C@H](Cc1ccccc1)C(C)C`, for which the concentration for half-maximal inhibition (IC50) was determined as 18 nM on Pro-cathepsin H, 27 nM at Cathepsin B and 0.012 µM on Procathepsin L.

For `CCCC[C@@H](/C=N/NC(=O)CC(C)C)NC(=O)OC(C)(C)C`, the IC50 at Cathepsin K [1] amounted to 200 nM.

For the molecule `CCCC[C@@H](/C=N/NC(=O)N1CCc2ccccc21)NC(=O)OC1(Cc2ccccc2)CCCC1`, the IC50 on Pro-cathepsin H was above 13000 nM; on Cathepsin B, 1800 nM; at Procathepsin L, 3.4 µM; on Cathepsin K [1] it was 1.1 nM.

Regarding `CCCC[C@@H](/C=N/N(C)C(=O)N(C)CCc1ccccc1)NC(=O)OC(C)(C)C`, the IC50 at Cathepsin K [1] worked out at 520 nM.

For the molecule `CCCC[C@@H](/C=N/NC(=O)N1CCCc2ccccc21)NC(=O)OC(C)(C)C`, the 50% inhibitory concentration (IC50) at Cathepsin K [1] amounted to 59 nM.

Regarding `CCCC[C@@H](/C=N/NC(=O)N1CCCCC1)NC(=O)OC(C)(C)C`, the half-maximal inhibitory concentration (IC50) on Cathepsin K [1] was found to be 58 nM.

Regarding `CC(C)C[C@@H]([13CH]=O)NC(=O)OC(C)(C)C`, the half-inhibitory concentration (IC50) on Cathepsin K [1] was determined as 31 nM.

For the molecule `CCCC[C@@H](/C=N/NC(=O)N1CCOCC1)NC(=O)OC(C)(C)C`, the IC50 on Pro-cathepsin H was above 13000 nM; at Cathepsin B, 32000 nM; on Procathepsin L, 11 µM; on Cathepsin K [1], 35 nM. This molecule also registered an apparent permeability coefficient (Papp) in data set [2] of 6.2 ×10⁻⁶ cm/s. The Vd in [3] was 0.57 L/kg. Moreover, the half-life in data set [4] amounted to 22 min. In data set [5], this molecule came in with a clearance of 43 mL/min/kg. The bioavailability in data set [6] is 3.9%. Also, the solubility in [7] was 120 µg/mL (≈ 350 µM).

As to `CCCC[C@@H](/C=N/NC(=O)N(CC)CC)NC(=O)OC(C)(C)C`, the IC50 at Cathepsin K [1] came to 40 nM.

As to `CCCC[C@@H](/C=N/NC(=O)N1CCc2ccccc21)NC(=O)OC(C)(C)C`, the half-maximal inhibitory concentration (IC50) is above 13000 nM on Pro-cathepsin H, 35000 nM on Cathepsin B, 14 µM on Procathepsin L and 48 nM at Cathepsin K [1]. Moreover, in data set [2], the Papp turned out to be 15 ×10⁻⁶ cm/s. Besides, the Vdss in the data set filed under Rattus norvegicus [8] was determined as 0.54 L/kg. Besides, the “beta t1/2” value in the data set on Rattus norvegicus [9] is 10 min. The bioavailability in data set [6] is 0%. In data set [7], this molecule yielded a solubility of 33 µg/mL (≈ 88.1 µM).

Turning to `CCCC[C@@H](/C=N/NC(=O)NC(=O)OC)NC(=O)OC(C)(C)C`, at Cathepsin K [1], the IC50 was found to be 180 nM.

As to `CCCC[C@@H](/C=N/NC(=O)C(F)(F)F)NC(=O)OC(C)(C)C`, at Cathepsin K [1], the IC50 turned out to be 24 nM.

Consider `CCCC[C@@H](/C=N/NC(=O)NCC)NC(=O)OC(C)(C)C`, for which the IC50 at Cathepsin K [1] was determined as 490 nM.

With `CCCC[C@@H](/C=N/OC(=O)N1CCOCC1)NC(=O)OC(C)(C)C`, at Cathepsin K [1], the IC50 is 1100 nM.

`CCCC[C@@H](C=O)NC(=O)O[C@@H](C)Cc1ccccc1`: the half-maximal inhibitory concentration (IC50) on Pro-cathepsin H stood at 40 nM.

As to `CCCC[C@@H](/C=N/NC(=O)OC(C)C)NC(=O)OC(C)(C)C`, the 50% inhibitory concentration (IC50) on Cathepsin K [1] was 130 nM.

For the molecule `CCCC[C@@H](/C=N/NC(=O)NCC(=O)OCC)NC(=O)OC(C)(C)C`, the IC50 at Cathepsin K [1] came to 520 nM.

As for `CCCC[C@@H](/C=N/NC(N)=O)NC(=O)OC(C)(C)C`, the IC50 on Cathepsin K [1] worked out at 350 nM.

`CCCC[C@@H](/C=N/NC(=O)N1CCOCC1)NC(=O)O[C@@H](C)Cc1ccccc1`: the IC50 was determined as 230 nM at Pro-cathepsin H; 270 nM at Cathepsin B; 0.54 µM on Procathepsin L; 130 nM on Cathepsin K [10]; 0.94 nM at Cathepsin K [1]. Besides, the Papp in data set [2] was 14 ×10⁻⁶ cm/s. In the data set listed under Rattus norvegicus [8], this molecule came in with a Vdss of 0.22 L/kg. Also, in the data set with Rattus norvegicus [9], the “beta t1/2” value is 9 min. This molecule also came in with a bioavailability in data set [6] of 0%. In data set [7], this molecule displayed a solubility of 60 µg/mL (≈ 148 µM).

In turn, `CCCC[C@@H](/C=N/NS(=O)(=O)N(C)C)NC(=O)OC(C)(C)C` displayed a Papp in data set [2] of 77 ×10⁻⁶ cm/s. The molecule further had a volume of distribution (Vd) in data set [3] of 0.39 L/kg. Moreover, the half-life in data set [4] is 39 min. In addition, in [5], the clearance turned out to be 25 mL/min/kg. In addition, the bioavailability in data set [6] came to 26%. Moreover, the IC50 at Cathepsin K [1] turned out to be 72 nM. This molecule also showed a solubility in data set [7] of 380 µg/mL (≈ 1130 µM).

Take `CCCC[C@@H](/C=N/NC(=O)c1ccccc1)NC(=O)OC(C)(C)C`: the half-maximal inhibitory concentration (IC50) on Cathepsin K [1] came out at 220 nM.

Regarding `CCCC[C@@H](/C=N/N[N+]1=CSCC1)NC(=O)OC(C)(C)C`, the half-inhibitory concentration (IC50) on Cathepsin K [1] came to 470 nM.

In the case of `CCCC[C@@H](/C=N/NC(=O)NCCc1ccccc1)NC(=O)OC(C)(C)C`, the half-inhibitory concentration (IC50) on Cathepsin K [1] amounted to 260 nM.

Turning to `CC(C)C[C@@H](/[13CH]=N/NC(=O)N1CCOCC1)NC(=O)OC(C)(C)C`, the IC50 at Cathepsin K [1] was determined as 110 nM.

In the case of `CCCC[C@@H](/C=N/NC(=O)NCc1ccccc1)NC(=O)OC(C)(C)C`, the concentration for half-maximal inhibition (IC50) on Cathepsin K [1] is 410 nM.

Consider `CCCC[C@@H](/C=N/N=C(N)N)NC(=O)OC(C)(C)C`, for which, at Cathepsin K [1], the IC50 turned out to be 33000 nM.

With `CCCC[C@@H](C=O)NC(=O)OC1(Cc2ccccc2)CCCC1`, the IC50 on Pro-cathepsin H was above 13000 nM.

For the molecule `CCCC[C@@H](/C=N/NC(=O)N(C)CCc1ccccc1)NC(=O)OC(C)(C)C`, at Cathepsin K [1], the IC50 worked out at 45 nM.

In data set [2], `CCCC[C@@H](/C=N/NC(=O)N1CCCC1)NC(=O)OC(C)(C)C` registered a Papp of 20 ×10⁻⁶ cm/s. In the data set listed under Rattus norvegicus [8], this molecule returned a Vdss of 0.43 L/kg. Moreover, the “beta t1/2” value in the data set with Rattus norvegicus [9] was determined as 18 min. The molecule further had a bioavailability in data set [6] of 0%. The IC50 at Cathepsin K [1] was found to be 36 nM. In addition, the solubility in data set [7] was 71 µg/mL (≈ 217 µM).

On to `CCCC[C@@H](C=O)NC(=O)OC(C)(C)C`, for which the IC50 was above 13000 nM on Pro-cathepsin H, 32000 nM on Cathepsin B and 8.9 µM at Procathepsin L.

With `CCCC[C@@H](/C=N/N=C(\S)NC(C)C)NC(=O)OC(C)(C)C`, the IC50 at Cathepsin K [1] is 170 nM.

Consider `CCCC[C@@H](/C=N/NC(=O)NCCC(=O)OCC)NC(=O)OC(C)(C)C`, for which the IC50 at Cathepsin K [1] came out at 470 nM.

On to `CCCC[C@@H](/C=N/N(C)C(=O)NCCc1ccccc1)NC(=O)OC(C)(C)C`, for which the 50% inhibitory concentration (IC50) at Cathepsin K [1] was 11000 nM.

Take `CCCC[C@@H](/C=N/NC(=O)Nc1ccccc1)NC(=O)OC(C)(C)C`: the concentration for half-maximal inhibition (IC50) on Cathepsin K [1] was 400 nM.

Consider `CCCC[C@@H](/C=N/NC(=O)N1CCc2ccccc2C1)NC(=O)OC(C)(C)C`, for which the IC50 on Cathepsin K [1] is 93 nM.

Regarding `CCCC[C@@H](/C=N/NC(=O)NC(C)(C)C)NC(=O)OC(C)(C)C`, the half-maximal inhibitory concentration (IC50) at Cathepsin K [1] came out at 160 nM.

For `CCCC[C@@H](/C=N/NC(=O)SC(C)C)NC(=O)OC(C)(C)C`, the concentration for half-maximal inhibition (IC50) at Cathepsin K [1] stood at 830 nM.
